For orientation: IC50 means the concentration that gives 50% inhibition.

For one series, the system named is HT-29. Description: Cytotoxicity against human HT-29 cells assessed as reduction of cell viability measured after 16 hrs by crystal violet staining assay. It counts as functional, cell-based.
Series [1] concerns Plasmodium falciparum. In words: Antiprotozoal activity against chloroquine-sensitive Plasmodium falciparum NF54 assessed as growth inhibition incubated for 48 hrs by [3H]-hypoxanthine incorporation assay. It counts as functional, organism-based.
A further series relates to Trypanosoma cruzi. Description: Antiprotozoal activity against Trypanosoma cruzi Tulahuen C4 amastigotes infected in rat L6 cells assessed as growth inhibition after 96 by photometric analysis. The format is functional, organism-based.
Series [2] concerns Trypanosoma brucei rhodesiense. Description: Antiprotozoal activity against Trypanosoma brucei rhodesiense STIB900 trypomastigotes assessed as growth inhibition after 72 hrs by Alamar Blue dye-based fluorometric analysis. It counts as functional, organism-based.
Another series relates to Leishmania donovani. In words: Antiprotozoal activity against Leishmania donovani MHOM/ET/67/L82 axenic amastigotes assessed as growth inhibition after 72 hrs by Alamar Blue dye-based fluorometric analysis. It counts as functional, organism-based. (Resazurin is reduced to fluorescent resorufin, in cell work by metabolically active cells.)
Another series deals with L6. Description: Cytotoxicity against rat L6 cells assessed as reduction in cell viability after 72 hrs by Alamar blue dye-based fluorometric analysis.
Series [3] is described as follows: Selectivity index, ratio of IC50 for cytotoxicity against rat L6 cells to IC50 for antiprotozoal activity against Plasmodium falciparum NF54. It counts as toxicity, cell-based.
In the next series the test system is HT-1080. Description: Cytotoxicity against human HT1080 cells assessed as reduction of cell viability measured after 16 hrs by crystal violet staining assay. It counts as functional, cell-based. The following applies: HT-1080, 16 h.
In another series the test system is MM1.S. Description: Cytotoxicity against human MM1S cells assessed as reduction of cell viability incubated for overnight by MTT assay. The format is functional, cell-based. On the technique in general: Tetrazolium dyes change colour on reduction, which living cells bring about.
Series [4] has as its system Plasmodium falciparum. In words: Antiprotozoal activity against asexual erythrocytic form of chloroquine-sensitive Plasmodium falciparum NF54 clone A1A9 assessed as growth inhibition incubated for 42 hrs by [3H]-hypoxanthine incorporation assay. It counts as functional, organism-based.
Where [5] appears, read: Leishmania donovani, MHOM/ET/67/L82, 72 h.
[6] abbreviates: Trypanosoma cruzi, Tulahuen C4, L6.

With `COc1cccc2c(-c3ccc4c(c3O)[C@@H](C)N(C)[C@@H](C)C4)c(C)cc(OC)c12`, the IC50 entry in the series on HT-29 is on record as “Not Active”.

For the compound `COc1cc(O)c(-c2c(C)cc(OC)c3c(OC)cccc23)c2c1[C@H](C)N[C@H](C)C2`, the half-inhibitory concentration (IC50) result with HT-29 is on record as “Not Active”.

Take `COc1cc(O)c2c(c1-c1c(C)cc(O)c3c(OC)cccc13)C[C@H](C)N[C@H]2C`: in the series with HT-29, the concentration for half-maximal inhibition (IC50) result is recorded as “Not Active”.

Consider `COc1cccc2c(-c3ccc4c(c3O)[C@@H](C)N[C@H](C)C4)c(C)c(-c3c(C)c(-c4ccc5c(c4O)[C@@H](C)N[C@H](C)C5)c4cccc(OC)c4c3O)c(O)c12` (stereo in doubt; 1a), for which the half-maximal inhibitory concentration (IC50) was 0.012 µM in the series on Plasmodium falciparum [1]; 14.9 µM in the series on Trypanosoma cruzi; 0.49 µM in series [2]; over 100 µM in the series with Leishmania donovani (setting [5]); 7.9 µM in the series with L6; over 50 µM in the series on HT-29 (read-out: IC50). In addition, in series [3], the “Ratio IC50” value turned out to be 660.

For the compound `COc1cccc2c(-c3ccc4c(c3O)[C@@H](C)N[C@H](C)C4)c(C)c(-c3c(C)c(-c4ccc5c(c4O)[C@@H](C)N[C@H](C)C5)c4cccc(OC)c4c3O)c(O)c12` (stereo in doubt; 1b), the IC50 turned out to be 0.021 µM in the series on Plasmodium falciparum [1], 17.1 µM in the series with Trypanosoma cruzi, 0.32 µM in series [2] and 4.3 µM in the series on L6. Moreover, the “Ratio IC50” value in series [3] was 206.

As to `COc1cccc2c(-c3ccc4c(c3O)[C@@H](C)N[C@H](C)C4)c(C)c(-c3c(C)c(-c4ccc5c(c4O)[C@@H](C)N[C@H](C)C5)c4cccc(OC)c4c3O)c(O)c12` (stereo in doubt; 1c), the half-inhibitory concentration (IC50) with Plasmodium falciparum [1] was 0.055 µM; in the series on Trypanosoma cruzi, 8.1 µM; in [2], 0.16 µM; in the series on Leishmania donovani it was 65.2 µM; in the series on L6, 2.3 µM. In [3], the “Ratio IC50” value is 41.6.

Take `COc1cccc2c(-c3ccc4c(c3O)[C@@H](C)N[C@H](C)C4)c(C)c(-c3c(C)c(-c4ccc5c(c4O)[C@@H](C)N[C@H](C)C5)c4cccc(OC)c4c3O)c(O)c12` (stereo in doubt; 1d) [listing 1 of 2 here]: the 50% inhibitory concentration (IC50) amounted to 13.7 µM in the series on Trypanosoma cruzi; 0.82 µM in series [2]; 80.2 µM in the series on Leishmania donovani; 15.9 µM in the series with L6; 12 µM with HT-29 (read-out: IC50); 9 µM in the series with HT-1080. In addition, the IC50 in the series on MM1.S is 5 µM. Further, the “Ratio IC50” value in series [3] worked out at 11400.

In the case of `COc1cccc2c(-c3ccc4c(c3O)[C@@H](C)N[C@H](C)C4)c(C)c(-c3c(C)c(-c4ccc5c(c4O)[C@@H](C)N[C@H](C)C5)c4cccc(OC)c4c3O)c(O)c12` (stereo in doubt; 1d) [listing 2 of 2 here], the inhibition entry in the series on HT-29 was “Dose-dependent effect”.

As to `COc1cccc2c(-c3ccc4c(c3O)[C@@H](C)N[C@H](C)C4)c(C)cc(O)c12` (stereo in doubt; 4a), the IC50 with Plasmodium falciparum [1] (Plasmodium falciparum, NF54) was 0.67 µM; with Trypanosoma cruzi (setting [6]), 24.4 µM; in series [2] (Trypanosoma brucei, STIB900, 72 h), 6.1 µM; in the series on Leishmania donovani (setting [5]), over 100 µM; in the series with L6, 9.1 µM. The “Ratio IC50” value in series [3] is 13.7.

`COc1cccc2c(-c3ccc4c(c3O)[C@@H](C)N[C@H](C)C4)c(C)cc(O)c12` (stereo in doubt; 4b): the IC50 with Plasmodium falciparum [1] was determined as 0.85 µM; with Trypanosoma cruzi, 45.1 µM; in series [2], 4.8 µM; in the series with L6, 44.8 µM. The “Ratio IC50” value in series [3] is reported as 52.7.

Regarding `O=C(Cn1ccnc1[N+](=O)[O-])NCc1ccccc1` [BENZNIDAZOLE], the half-maximal inhibitory concentration (IC50) with Trypanosoma cruzi (setting [6]) came out at 2.6 µM.

For the compound `COc1cccc2c(-c3ccc4c(c3O)[C@@H](C)N[C@H](C)C4)c(C)cc(OC)c12` [DIONCOPHYLLINE A], in the series on Plasmodium falciparum [4], the concentration for half-maximal inhibition (IC50) was 3.8 µM.

With `CCCCCCCCCCCCCCCCOP(=O)([O-])OCC[N+](C)(C)C` [MILTEFOSINE], the half-inhibitory concentration (IC50) in the series on Leishmania donovani (setting [5]) amounted to 0.8 µM.

The record behind these values is ChEMBL document CHEMBL4334514, “A Near-Complete Series of Four Atropisomeric Jozimine A2-Type Naphthylisoquinoline Dimers with Antiplasmodial and Cytotoxic Activities and Related Alkaloids from Ancistrocladus abbreviatus” (J Nat Prod, 2019).
